According to US8143408B2, “N-(8-heteroaryltetrahydronaphtalene-2yl) or N-(5-heteroarylchromane-3-yl) carboxamide derivatives for the treatment of pain” (AstraZeneca AB, priority 2007, dated 2012):

Each compound was assayed against T1, Nav1.7 voltage-gated sodium channel (Homo sapiens, UniProt Q15858) (assay: Whole-cell voltage clamp electrophysiology assay). Conditions: cells stably expressing the voltage-gated sodium channel of interest.
T1 construct: Gene(s) encoding the full-length protein of the voltage-gated sodium channel of interest are cloned and expressed; expressed in transfected cells
T1 sequence (Q15858 whole entry): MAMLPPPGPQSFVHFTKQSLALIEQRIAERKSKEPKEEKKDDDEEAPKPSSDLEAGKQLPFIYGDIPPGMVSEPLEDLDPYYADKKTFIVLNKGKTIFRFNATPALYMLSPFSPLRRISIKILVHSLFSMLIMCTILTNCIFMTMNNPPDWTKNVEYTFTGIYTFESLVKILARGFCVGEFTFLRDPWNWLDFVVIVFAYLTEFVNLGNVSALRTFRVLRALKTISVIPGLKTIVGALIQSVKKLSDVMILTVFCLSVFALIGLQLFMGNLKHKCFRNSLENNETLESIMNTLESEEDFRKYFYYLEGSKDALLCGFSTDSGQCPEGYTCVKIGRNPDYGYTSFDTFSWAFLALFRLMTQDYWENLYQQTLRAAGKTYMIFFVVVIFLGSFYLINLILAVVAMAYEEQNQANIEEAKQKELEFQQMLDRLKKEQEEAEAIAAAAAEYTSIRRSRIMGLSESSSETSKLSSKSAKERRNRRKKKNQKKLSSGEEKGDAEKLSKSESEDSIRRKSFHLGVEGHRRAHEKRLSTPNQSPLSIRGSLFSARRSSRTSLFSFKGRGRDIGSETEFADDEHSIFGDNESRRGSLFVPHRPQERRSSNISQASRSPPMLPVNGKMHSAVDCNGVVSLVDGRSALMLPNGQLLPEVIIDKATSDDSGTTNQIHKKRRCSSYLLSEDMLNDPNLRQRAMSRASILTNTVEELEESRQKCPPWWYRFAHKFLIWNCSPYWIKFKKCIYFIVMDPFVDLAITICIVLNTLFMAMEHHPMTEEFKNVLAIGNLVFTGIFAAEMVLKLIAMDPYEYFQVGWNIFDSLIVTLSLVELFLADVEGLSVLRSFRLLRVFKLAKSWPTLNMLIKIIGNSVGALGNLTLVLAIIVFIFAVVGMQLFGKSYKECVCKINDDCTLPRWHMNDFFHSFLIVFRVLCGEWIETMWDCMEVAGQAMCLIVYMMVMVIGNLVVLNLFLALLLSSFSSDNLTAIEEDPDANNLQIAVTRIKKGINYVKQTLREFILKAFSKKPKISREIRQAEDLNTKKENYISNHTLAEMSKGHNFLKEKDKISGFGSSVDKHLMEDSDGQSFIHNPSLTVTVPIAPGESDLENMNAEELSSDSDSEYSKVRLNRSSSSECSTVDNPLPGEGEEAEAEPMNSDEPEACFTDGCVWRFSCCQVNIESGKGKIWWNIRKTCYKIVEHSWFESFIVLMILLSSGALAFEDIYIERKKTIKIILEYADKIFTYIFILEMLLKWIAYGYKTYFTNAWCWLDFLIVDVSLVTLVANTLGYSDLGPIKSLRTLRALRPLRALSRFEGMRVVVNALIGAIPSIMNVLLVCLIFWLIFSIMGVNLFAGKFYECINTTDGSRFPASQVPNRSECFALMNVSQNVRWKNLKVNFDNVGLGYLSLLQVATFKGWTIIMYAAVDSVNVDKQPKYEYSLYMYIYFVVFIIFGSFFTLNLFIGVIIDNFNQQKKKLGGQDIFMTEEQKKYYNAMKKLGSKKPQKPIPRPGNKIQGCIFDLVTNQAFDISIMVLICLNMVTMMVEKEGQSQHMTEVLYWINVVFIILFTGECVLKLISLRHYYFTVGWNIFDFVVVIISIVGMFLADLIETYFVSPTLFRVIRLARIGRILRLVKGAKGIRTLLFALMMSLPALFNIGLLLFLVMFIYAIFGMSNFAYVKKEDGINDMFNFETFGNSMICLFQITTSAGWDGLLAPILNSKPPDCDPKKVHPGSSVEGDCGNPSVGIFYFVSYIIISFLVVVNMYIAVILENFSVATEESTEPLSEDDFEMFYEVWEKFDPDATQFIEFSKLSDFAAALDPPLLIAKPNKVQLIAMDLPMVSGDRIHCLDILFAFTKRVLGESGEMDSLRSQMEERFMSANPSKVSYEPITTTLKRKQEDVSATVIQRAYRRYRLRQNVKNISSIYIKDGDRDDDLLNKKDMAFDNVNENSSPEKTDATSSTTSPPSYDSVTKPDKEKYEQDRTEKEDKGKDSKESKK
Type: cell-based
Description: Gene(s) encoding the full-length protein of the voltage-gated sodium channel of interest are cloned and expressed under a suitable promoter in a suitable cell line, as well known in the art. […] Suitable screening assays are as follows.
Electrophysiological studies can be performed using automated patch-clamp electrophysiology platforms, like IonWorks HT, IonWorks Quattro, PatchXpress, QPatch or any other suitable platform. […] Suitable extracellular and intracellular buffer for such experiments are applied according to the instructions given by the manufacturer of the automated patch-clamp platforms. Cells that express the voltage-gated sodium channel protein of interest are exposed to drugs through the pipetting system integrated in the platforms. A suitable voltage stimulus protocol is used to activate the voltage-gated sodium channel proteins of interest through depolarisation from a defined holding potential.
Electrophysiological studies can also be performed using the whole cell configuration of the standard patch clamp technique. In this assay, cells that express the voltage-gated sodium channel protein of interest are exposed to the drugs by conventional microperfusion systems and a suitable voltage stimulus protocol is used to activate the voltage-gated sodium channels.
`O=C(N[C@@H]1COc2cccc(-c3ccncc3)c2C1)c1ccc(OC(F)(F)F)cc1` [Example 1, N-[(3S)-5-Pyridin-4-yl-3,4-dihydro-2H-chromen-3-yl]-4-(trifluoromethoxy)-benzamide] showed an IC50 of 398 nM.
`CCCCOc1ccc(C(=O)N[C@@H]2COc3cccc(-c4ccncc4)c3C2)cc1` [Example 2, 4-Butoxy-N-[(3S)-5-pyridin-4-yl-3,4-dihydro-2H-chromen-3-yl]benzamide] gave an IC50 of 126 nM.
For `O=C(N[C@@H]1CCc2cccc(-c3ccncc3)c2C1)c1ccc(OS(=O)(=O)C(F)(F)F)cc1` [Example 3, 4-{[(2R)-8-Pyridin-4-yl-1,2,3,4-tetrahydronaphthalen-2-yl]carbamoyl}phenyl trifluoromethanesulfonate], the IC50 was 251 nM.
`O=C(N[C@@H]1COc2cccc(-c3ccccn3)c2C1)c1ccc(OC(F)(F)F)cc1` [Example 5, N-[(3S)-5-Pyridin-2-yl-3,4-dihydro-2H-chromen-3-yl]-4-(trifluoromethoxy)-benzamide] was tested, and the IC50 was 1580 nM.
`Cn1cc(-c2cccc3c2C[C@H](NC(=O)c2ccc(OC(F)(F)F)cc2)CC3)cn1` [Example 6, N-[(2R)-8-(1-Methyl-1H-pyrazol-4-yl)-1,2,3,4-tetrahydronaphthalen-2-yl]-4-(trifluoromethoxy)-benzamide] showed an IC50 of 1000 nM.
`Cn1cc(-c2cccc3c2C[C@H](NC(=O)c2ccc(OS(=O)(=O)C(F)(F)F)cc2)CC3)cn1` [Example 7, 4-{[(2R)-8-(1-Methyl-1H-pyrazol-4-yl)-1,2,3,4-tetrahydronaphthalen-2-yl]carbamoyl}phenyl trifluoromethanesulfonate] was tested, and the IC50 was 200 nM.
`Cc1nn(-c2ccccc2)nc1C(=O)N[C@@H]1CCc2cccc(-c3cnn(C)c3)c2C1` [Example 8, 5-Methyl-N-[(2R)-8-(1-methyl-1H-pyrazol-4-yl)-1,2,3,4-tetrahydronaphthalen-2-yl]-2-phenyl-2H-1,2,3-triazole-4-carboxamide] gave an IC50 of 1580 nM.
In the case of `Cc1n[nH]c(C)c1-c1cccc2c1C[C@H](NC(=O)c1ccc(OC(F)(F)F)cc1)CC2` [Example 9, N-[(2R)-8-(3,5-Dimethyl-1H-pyrazol-4-yl)-1,2,3,4-tetrahydronaphthalen-2-yl]-4-(trifluoromethoxy)-benzamide], the IC50 is reported as 6310 nM.
`Cc1noc(C)c1-c1cccc2c1C[C@H](NC(=O)c1ccc(OC(F)(F)F)cc1)CC2` [Example 10, N-[(2R)-8-(3,5-Dimethylisoxazol-4-yl)-1,2,3,4-tetrahydronaphthalen-2-yl]-4-(trifluoromethoxy)-benzamide] was tested, and the IC50 was 3980 nM.
Compound `Cc1noc(C)c1-c1cccc2c1C[C@H](NC(=O)c1ccc(OS(=O)(=O)C(F)(F)F)cc1)CC2` [Example 11, 4-{[(2R)-8-(3,5-Dimethylisoxazol-4-yl)-1,2,3,4-tetrahydronaphthalen-2-yl]carbamoyl}phenyl trifluoromethanesulfonate] has an IC50 of 631 nM.
For `O=C(N[C@@H]1CCc2cccc(-c3ccncc3)c2C1)c1ccc(OCC(F)(F)F)nc1` [Example 12, N-[(2R)-8-pyridin-4-yl-1,2,3,4-tetrahydronaphthalen-2-yl]-6-(2,2,2-trifluoroethoxy)nicotinamide], the IC50 was 63.1 nM.
`O=C(N[C@@H]1CCc2cccc(-c3ccncc3)c2C1)c1ccc(OCCC(F)(F)F)nc1` [Example 13, N-[(2R)-8-pyridin-4-yl-1,2,3,4-tetrahydronaphthalen-2-yl]-6-(3,3,3-trifluoropropoxy)nicotinamide] was tested, and the IC50 was 39.8 nM.
For `CC(C)Oc1ccc(C(=O)N[C@@H]2CCc3cccc(-c4ccncc4)c3C2)cn1` [Example 14, 6-isopropoxy-N-[(2R)-8-pyridin-4-yl-1,2,3,4-tetrahydronaphthalen-2-yl]nicotin-amide], the IC50 was 251 nM.
In the case of `O=C(N[C@@H]1CCc2cccc(-c3ccncc3)c2C1)c1ccc(OC2CCCC2)nc1` [Example 15, 6-(cyclopentyloxy)-N-[(2R)-8-pyridin-4-yl-1,2,3,4-tetrahydronaphthalen-2-yl]nicotin-amide], the IC50 is reported as 25.1 nM.
Compound `COc1ccc(C(=O)N[C@@H]2CCc3cccc(-c4ccncc4)c3C2)c(OC)c1` [Example 16, 2,4-dimethoxy-N-[(2R)-8-pyridin-4-yl-1,2,3,4-tetrahydronaphthalen-2-yl]-benzamide] has an IC50 of 2000 nM.
With `Cc1nn(-c2ccccc2)nc1C(=O)N[C@@H]1CCc2cccc(-c3ccncc3)c2C1` [Example 17, 5-methyl-2-phenyl-N-[(2R)-8-pyridin-4-yl-1,2,3,4-tetrahydronaphthalen-2-yl]-2H-1,2,3-triazole-4-carboxamide] the IC50 was 3980 nM.
Work on `O=C(N[C@@H]1COc2cccc(-c3ccncc3)c2C1)c1ccc(OCC(F)(F)F)nc1` [Example 18, N-[(3S)-5-pyridin-4-yl-3,4-dihydro-2H-chromen-3-yl]-6-(2,2,2-trifluoroethoxy)nicotinamide] yielded an IC50 of 100 nM.
For `O=C(N[C@@H]1COc2cccc(-c3ccncc3)c2C1)c1ccc(OCCC(F)(F)F)nc1` [Example 19, N-[(3S)-5-pyridin-4-yl-3,4-dihydro-2H-chromen-3-yl]-6-(3,3,3-trifluoropropoxy)nicotin-amide], the IC50 was 79.4 nM.
`CC(C)Oc1ccc(C(=O)N[C@@H]2COc3cccc(-c4ccncc4)c3C2)cn1` [Example 20, 6-isopropoxy-N-[(3S)-5-pyridin-4-yl-3,4-dihydro-2H-chromen-3-yl]nicotin-amide] was tested, and the IC50 was 158 nM.
`O=C(N[C@@H]1COc2cccc(-c3ccncc3)c2C1)c1ccc(OC2CCCC2)nc1` [Example 21, 6-(cyclopentyloxy)-N-[(3S)-5-pyridin-4-yl-3,4-dihydro-2H-chromen-3-yl]nicotin-amide] was tested, and the IC50 was 63.1 nM.
`COc1ccc(C(=O)N[C@@H]2COc3cccc(-c4ccncc4)c3C2)c(OC)c1` [Example 22, 2,4-dimethoxy-N-[(3S)-5-pyridin-4-yl-3,4-dihydro-2H-chromen-3-yl]benzamide] showed an IC50 of 6310 nM.
`Cc1nn(-c2ccccc2)nc1C(=O)N[C@@H]1COc2cccc(-c3ccncc3)c2C1` [Example 23, 5-methyl-2-phenyl-N-[(3S)-5-pyridin-4-yl-3,4-dihydro-2H-chromen-3-yl]-2H-1,2,3-triazole-4-carboxamide] gave an IC50 of 1260 nM.
`CC(C)COc1ccc(C(=O)N[C@@H]2COc3cccc(-c4ccncc4)c3C2)cn1` [Example 24, 6-isobutoxy-N-[(3S)-5-pyridin-4-yl-3,4-dihydro-2H-chromen-3-yl]nicotin-amide] was tested, and the IC50 was 126 nM.
`CCOc1ccc(C(=O)N[C@@H]2COc3cccc(-c4ccncc4)c3C2)cn1` [Example 25, 6-ethoxy-N-[(3S)-5-pyridin-4-yl-3,4-dihydro-2H-chromen-3-yl]nicotin-amide] showed an IC50 of 2000 nM.
`O=C(N[C@@H]1COc2cccc(-c3ccncc3)c2C1)c1ccc(OCC(F)F)nc1` [Example 26, 6-(2,2-difluoroethoxy)-N-[(3S)-5-pyridin-4-yl-3,4-dihydro-2H-chromen-3-yl]nicotin-amide] gave an IC50 of 631 nM.
For `O=C(N[C@@H]1COc2cccc(-c3ccncc3)c2C1)c1ccc(OC(CF)CF)nc1` [Example 27, 6-[2-fluoro-1-(fluoromethyl)ethoxy]-N-[(3S)-5-pyridin-4-yl-3,4-dihydro-2H-chromen-3-yl]nicotin-amide], the IC50 was 631 nM.
`O=C(N[C@@H]1COc2cccc(-c3ccncc3)c2C1)c1cnc(OC2CCCC2)nc1` [Example 28, 2-(cyclopentyloxy)-N-[(3S)-5-pyridin-4-yl-3,4-dihydro-2H-chromen-3-yl]Pyrimidine-5-carboxamide] was tested, and the IC50 was 100 nM.
